This assay concerns the target T1, gastrin (CCK2) receptors (Rattus norvegicus, UniProt P30553).
T1 construct: The stomach was excised and flushed with ca. 1 ml of unbuffered physiological saline solution; from tissue; host or cells: isolated whole stomach of immature rats (33-50 g, ca. 21 days old)
T1 sequence (P30553 1-452): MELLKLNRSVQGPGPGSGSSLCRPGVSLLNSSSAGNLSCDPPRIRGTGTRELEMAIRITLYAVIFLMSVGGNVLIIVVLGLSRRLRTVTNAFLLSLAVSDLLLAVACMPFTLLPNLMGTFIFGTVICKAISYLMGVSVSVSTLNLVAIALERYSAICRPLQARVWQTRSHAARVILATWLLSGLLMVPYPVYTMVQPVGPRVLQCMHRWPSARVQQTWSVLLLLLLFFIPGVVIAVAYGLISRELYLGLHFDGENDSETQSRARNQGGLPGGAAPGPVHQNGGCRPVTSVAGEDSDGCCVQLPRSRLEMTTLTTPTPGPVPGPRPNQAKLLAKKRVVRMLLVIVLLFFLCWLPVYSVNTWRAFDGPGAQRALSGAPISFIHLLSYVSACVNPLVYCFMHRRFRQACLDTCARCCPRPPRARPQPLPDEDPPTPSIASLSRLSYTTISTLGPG
As to the kind of experiment: immature rat stomach assay for gastrin (CCK2) antagonist activity (pentagastrin-stimulated acid secretion). To be noted: isolated immature rat stomach, antagonism of pentagastrin dose-response curves, 60 min incubation; tested as N-methyl D-glucamine salts; read-out: Rat stomach pKB (converted). The method, then: The compounds of the examples were tested for gastrin (CCK2) antagonist activity in an immature rat stomach assay. The procedure was as follows:
The oesophagus of immature rats (33-50 g, ca. 21 days old) was ligated at the level of the cardiac sphincter and the duodenal sphincter was cannulated. The stomach was excised and flushed with ca. 1 ml of unbuffered physiological saline solution. The fundus was punctured and cannulated. A further 4-5 ml of unbuffered solution was flushed through the stomach to ensure the preparation was not leaking. The stomach was lowered into a jacketed organ bath containing 40 ml of buffered solution containing 3×10^−8 M 5-methylfurmethide, maintained at 37° and gassed vigorously with 95% O2/5% CO2. The stomach was continuously perfused at a rate of 1 ml min^−1 with unbuffered solution gassed with 100% O2 with the perfusate passing over an internally referenced pH-electrode fixed 12 cm above the stomach.
After 120 min of stabilisation the drugs were added directly to the serosal solution in the organ bath and after a further 60 min cumulative pentagastrin dose-response curves were started. Changes in acid secretion were monitored and the curves analysed according to Black et al, Br. J. Pharmacol., 1985, 86, 581.

Consider four compounds from patent US7105558B2, “Gastrin and cholecystokinin receptor lignads (iv)” (The James Black Foundation Limited, priority 2000, dated 2006).

The structures appear in SMILES notation.

As to `CC(C)(C)n1nc(COC23CC4CC(CC(C4)C2)C3)c(C(=O)Nc2cccc(C(=O)O)c2)n1` [Example 9, 3-[[5-(Adamantan-1-yloxymethyl)-2-tert-butyl-2H-[1,2,3]triazole-4-carbonyl]-amino]-benzoic acid], the Kb is 631 nM.
Next, `O=C(O)c1cccc(NC(=O)c2nn(-c3ccccc3Cl)nc2COC23CC4CC(CC(C4)C2)C3)c1` [Example 5, 3-[[5-(Adamantan-1-yloxymethyl)-2-(2-chloro-phenyl)-2H-[1,2,3]triazole-4-carbonyl]-amino]-benzoic acid]: 30.9 nM; `CC(C)c1ccccc1-n1nc(COC23CC4CC(CC(C4)C2)C3)c(C(=O)Nc2cccc(C(=O)O)c2)n1` [Example 17, 3-[[5-(Adamantan-1-yloxymethyl)-2-(2-isopropyl-phenyl)-2H-[1,2,3]triazole-4-carbonyl]-amino]-benzoic acid]: 263 nM; `O=C(O)c1cccc(NC(=O)c2nn(-c3c(Cl)cccc3Cl)nc2COC23CC4CC(CC(C4)C2)C3)c1` [Example 3, 3-[[5-(Adamantan-1-yloxymethyl)-2-(2,6-dichlorophenyl)-2H-[1,2,3]triazole-4-carbonyl]-amino]-benzoic acid]: 13.2 nM.
